Results taken from patent US10123993B2, “Cyclic ureas as inhibitors of rock” (BRISTOL-MYERS SQUIBB COMPANY, priority 2015, dated 2018).

Biological target: ROCK2 (Homo sapiens, UniProt O75116)
Assay: ROCK2 kinase inhibition assay (Caliper LABCHIP, FITC peptide substrate)
Format: biochemical
Conditions: 5 μM ATP, 1.5 μM peptide substrate; value ranges
Outline: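 Dose-response curves gave IC50 from inhibition of peptide phosphorylation, measured by LabChip separation after EDTA stop. Reactions used 1.5 μM FITC-labelled peptide, 5 μM ATP, 20 mM HEPES pH 7.5 with MgCl2, Brij-35, DTT, and under 2% DMSO.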

Chain of ROCK2 (O75116 whole entry, species assumed): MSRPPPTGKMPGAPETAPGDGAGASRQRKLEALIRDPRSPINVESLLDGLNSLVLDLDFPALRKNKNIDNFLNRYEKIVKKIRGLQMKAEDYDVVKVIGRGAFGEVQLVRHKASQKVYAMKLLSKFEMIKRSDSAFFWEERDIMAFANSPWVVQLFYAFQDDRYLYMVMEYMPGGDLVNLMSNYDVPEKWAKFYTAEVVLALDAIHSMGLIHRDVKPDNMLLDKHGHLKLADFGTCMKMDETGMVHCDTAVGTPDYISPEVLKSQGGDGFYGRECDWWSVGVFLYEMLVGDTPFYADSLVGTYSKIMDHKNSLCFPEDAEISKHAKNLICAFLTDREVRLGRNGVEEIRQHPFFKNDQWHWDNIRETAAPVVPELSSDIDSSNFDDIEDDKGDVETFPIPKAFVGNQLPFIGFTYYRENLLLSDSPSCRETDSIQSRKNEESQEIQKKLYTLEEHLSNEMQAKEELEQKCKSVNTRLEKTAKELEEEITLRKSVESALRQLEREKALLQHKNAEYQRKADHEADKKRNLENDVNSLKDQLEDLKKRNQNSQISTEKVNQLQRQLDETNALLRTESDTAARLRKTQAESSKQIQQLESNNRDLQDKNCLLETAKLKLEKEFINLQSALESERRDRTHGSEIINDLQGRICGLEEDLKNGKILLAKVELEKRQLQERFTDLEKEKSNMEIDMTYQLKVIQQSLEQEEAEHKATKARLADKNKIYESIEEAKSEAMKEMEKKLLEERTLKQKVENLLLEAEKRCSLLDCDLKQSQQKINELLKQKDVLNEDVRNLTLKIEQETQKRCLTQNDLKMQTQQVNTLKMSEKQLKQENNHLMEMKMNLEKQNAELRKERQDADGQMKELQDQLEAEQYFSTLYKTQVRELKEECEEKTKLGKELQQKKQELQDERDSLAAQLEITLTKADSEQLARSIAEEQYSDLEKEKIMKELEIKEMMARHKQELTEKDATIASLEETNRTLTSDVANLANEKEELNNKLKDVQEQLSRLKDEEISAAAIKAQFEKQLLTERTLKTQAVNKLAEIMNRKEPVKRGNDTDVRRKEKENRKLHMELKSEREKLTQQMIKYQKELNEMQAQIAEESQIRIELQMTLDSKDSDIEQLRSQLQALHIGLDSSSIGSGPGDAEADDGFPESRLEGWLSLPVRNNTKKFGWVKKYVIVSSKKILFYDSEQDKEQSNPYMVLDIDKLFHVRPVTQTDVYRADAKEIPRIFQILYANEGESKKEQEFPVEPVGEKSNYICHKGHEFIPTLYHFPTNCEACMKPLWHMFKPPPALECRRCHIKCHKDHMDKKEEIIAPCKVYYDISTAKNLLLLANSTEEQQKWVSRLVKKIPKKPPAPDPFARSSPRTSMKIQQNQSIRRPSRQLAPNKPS

First: COc1ccc(CN2CCN(c3ccc(-c4cn[nH]c4)cc3)C2=O)cc1F [Example 117, 1-(4-(1H-pyrazol-4-yl)phenyl)-3-(3-fluoro-4-methoxybenzyl)imidazolidin-2-one]
Second: COc1ccc(F)cc1CN1CCN(c2ccc(-c3cn[nH]c3)cc2)C1=O [Example 119, 1-(4-(1H-pyrazol-4-yl)phenyl)-3-(5-fluoro-2-methoxybenzyl)imidazolidin-2-one]
The IC50 of the first is higher: 200 to 2000 nM for the first, 20.1 to 200 nM for the second.

Compared with `COc1cc(F)cc(CN2CCN(c3ccc(-c4cn[nH]c4)cc3)C2=O)c1` [Example 118, 1-(4-(1H-pyrazol-4-yl)phenyl)-3-(3-fluoro-5-methoxybenzyl)imidazolidin-2-one], `COc1ccc(F)c(CN2CCN(c3ccc(-c4cn[nH]c4)cc3)C2=O)c1` [Example 120, 1-(4-(1H-pyrazol-4-yl)phenyl)-3-(2-fluoro-5-methoxybenzyl)imidazolidin-2-one] is higher in IC50: < 2 nM for the first, 20.1 to 200 nM for the second. The first is the more potent here.

First: COc1cccc(CN2C(=O)N(c3ccc(-c4cn[nH]c4)cc3)C(=O)C2CO)c1 (centres unmarked) [Example 121, 3-(4-(1H-Pyrazol-4-yl)phenyl)-5-(hydroxymethyl)-1-(3-methoxybenzyl)imidazolidine-2,4-dione]
Second: COc1cccc(CN2C(=O)N(c3ccc(-c4cn[nH]c4)cc3)C[C@@H]2CO)c1 [Example 125, (R)-1-(4-(1H-Pyrazol-4-yl)phenyl)-4-(hydroxymethyl)-3-(3-methoxybenzyl)imidazolidin-2-one]
The IC50 of the first is higher: 200 to 2000 nM for the first, < 2 nM for the second.

`COc1cccc([C@@H](C)N2CCN(c3ccc(-c4cn[nH]c4)cc3)C2=O)c1` [Example 122, (R)-1-(4-(1H-Pyrazol-4-yl)phenyl)-3-(1-(3-methoxyphenyl)ethyl)imidazolidin-2-one] and `COc1cccc(CN2C(=O)N(c3ccc(-c4cn[nH]c4)cc3)CC2(C)C)c1` [Example 137, 1-(4-(1H-Pyrazol-4-yl)phenyl)-3-(3-methoxybenzyl)-4,4-dimethylimidazolidin-2-one] cannot be ordered by IC50: < 2 nM for the first, < 2 nM for the second.

`COc1cc(F)cc(CN2C(=O)N(c3ccc(-c4cn[nH]c4)cc3)C[C@H]2CO)c1` [Example 129, (S)-1-(4-(1H-pyrazol-4-yl)phenyl)-3-(3-fluoro-5-methoxy-benzyl)-4-(hydroxy-methyl)-imidazolidin-2-one] and `CCC1CN(c2ccc(-c3cn[nH]c3)cc2)C(=O)N1Cc1cc(F)cc(OC)c1` (centres unmarked) [Example 176, 1-(4-(1H-pyrazol-4-yl)phenyl)-4-ethyl-3-(3-fluoro-5-methoxy-benzyl) imidazolidin-2-one] cannot be ordered by IC50: < 2 nM for the first, < 2 nM for the second.

Compared with `COc1cc(F)cc(CN2C(=O)N(c3ccc(-c4cn[nH]c4)cc3)CC2(C)C)c1` [Example 138, 1-(4-(1H-pyrazol-4-yl)phenyl)-3-(3-fluoro-5-methoxy-benzyl)-4,4-dimethyl-imidazolidin-2-one], `COc1ccc(CN2C(=O)N(c3ccc(-c4cn[nH]c4)cc3)CC2(C)C)cc1F` [Example 139, 1-(4-(1H-pyrazol-4-yl)phenyl)-3-(3-fluoro-4-methoxy-benzyl)-4,4-dimethyl-imidazolidin-2-one] is higher in IC50: 2.1 to 20 nM for the first, 200 to 2000 nM for the second.

First: COc1cc(CN2C(=O)N(c3ccc(-c4cn[nH]c4)cc3)CC2(C)C)ccc1F [Example 140, 1-(4-(1H-pyrazol-4-yl)phenyl)-3-(4-fluoro-3-methoxy-benzyl)-4,4-dimethyl-imidazolidin-2-one]
Second: COc1cccc(CN2C(=O)N(c3ccc(-c4cn[nH]c4)cc3)CC2(C)C)c1F [Example 143, 1-(4-(1H-pyrazol-4-yl)phenyl)-3-(2-fluoro-3-methoxy-benzyl)-4,4-dimethyl-imidazolidin-2-one]
The IC50 of the first is lower: 2.1 to 20 nM for the first, 20.1 to 200 nM for the second.

First: CC1(C)CN(c2ccc(-c3cn[nH]c3)cc2)C(=O)N1Cc1cccc(F)c1 [Example 141, 1-(4-(1H-pyrazol-4-yl)phenyl)-3-(3-fluoro-benzyl)-4,4-dimethyl-imidazolidin-2-one]
Second: CC1(C)CN(c2ccc(-c3cn[nH]c3)cc2)C(=O)N1Cc1cccc(OC(F)F)c1 [Example 142, 1-(4-(1H-pyrazol-4-yl)phenyl)-3-(3-(difluoro-methoxy)-benzyl)-4,4-dimethyl-imidazolidin-2-one]
The IC50 of the first is lower: 2.1 to 20 nM for the first, 20.1 to 200 nM for the second. The first is the more potent here.

Compared with `CC1(C)CN(c2ccc(-c3cn[nH]c3)cc2)C(=O)N1Cc1cccc(OCC2CC2)c1` [Example 144, 1-(4-(1H-pyrazol-4-yl)phenyl)-3-(3-(cyclo-propyl-methoxy)benzyl)-4,4-dimethyl-imidazolidin-2-one], `CCC1CN(c2ccc(-c3cn[nH]c3)cc2)C(=O)N1Cc1cccc(OCC2CC2)c1` (centres unmarked) [Example 177, 1-(4-(1H-pyrazol-4-yl)phenyl)-3-(3-(cyclo-propyl-methoxy)-benzyl)-4-ethyl-imidazolidin-2-one] is higher in IC50: 2.1 to 20 nM for the first, 20.1 to 200 nM for the second.

`CCc1cc(N2CC(C)(C)N(Cc3cc(F)cc(OC)c3)C2=O)ccc1-c1cn[nH]c1` [Example 147, 1-(3-ethyl-4-(1H-pyrazol-4-yl)-phenyl)-3-(3-fluoro-5-methoxy-benzyl)-4,4-dimethyl-imidazolidin-2-one] and `CCc1cc(N2CC(C)(C)N(Cc3cccc(OC)c3)C2=O)ccc1-c1cn[nH]c1` [Example 148, 1-(3-ethyl-4-(1H-pyrazol-4-yl)phenyl)-3-(3-methoxy-benzyl)-4,4-dimethyl-imidazolidin-2-one] fall in the same range of IC50: 2.1 to 20 nM for the first, 2.1 to 20 nM for the second.

`COc1cc(F)cc(CN2C(=O)N(c3ccc(-c4cn[nH]c4)c(C)n3)CC2(C)C)c1` [Example 151, 3-(3-fluoro-5-methoxy-benzyl)-4,4-dimethyl-1-(6-methyl-5-(1H-pyrazol-4-yl)pyridin-2-yl)-imidazolidin-2-one] and `COc1cc(CN2C(=O)N(c3ccc(-c4cn[nH]c4)c(C)n3)CC2(C)C)ccc1F` [Example 152, 3-(4-fluoro-3-methoxy-benzyl)-4,4-dimethyl-1-(6-methyl-5-(1H-pyrazol-4-yl)pyridin-2-yl)-imidazolidin-2-one] fall in the same range of IC50: 2.1 to 20 nM for the first, 2.1 to 20 nM for the second.

First: COc1cccc(CN2C(=O)N(c3ccc(-c4cn[nH]c4)cc3)C(=O)C2CO)c1 (centres unmarked) [Example 153, 3-(4-(1H-Pyrazol-4-yl)phenyl)-5-(hydroxymethyl)-1-(3-methoxybenzyl)imidazolidine-2,4-dione]
Second: CCC1CN(c2ccc(-c3cn[nH]c3)cc2)C(=O)N1Cc1cccc(OC)c1 (centres unmarked) [Example 175, 1-(4-(1H-pyrazol-4-yl)phenyl)-4-ethyl-3-(3-methoxy-benzyl) imidazolidin-2-one]
The IC50 of the first is higher: 200 to 2000 nM for the first, < 2 nM for the second.

Compared with `CCc1nc(N2CCN(Cc3cccc(OC)c3)C2=O)ccc1-c1cn[nH]c1` [Example 167, 1-(6-ethyl-5-(1H-pyrazol-4-yl)pyridin-2-yl)-3-(3-methoxy-benzyl) imidazolidin-2-one], `COc1cccc(CN2CCN(c3ccc(-c4cn[nH]c4)c(C)n3)C2=O)c1` [Example 179, 1-(3-methoxy-benzyl)-3-(6-methyl-5-(1H-pyrazol-4-yl)pyridin-2-yl)-imidazolidin-2-one] is higher in IC50: < 2 nM for the first, 2.1 to 20 nM for the second. The first is the more potent here.

First: CCc1nc(N2CCN(Cc3cc(F)cc(OC)c3)C2=O)ccc1-c1cn[nH]c1 [Example 168, 1-(6-ethyl-5-(1H-pyrazol-4-yl)pyridin-2-yl)-3-(3-fluoro-5-methoxy-benzyl) imidazolidin-2-one]
Second: COc1cc(F)cc(CN2CCN(c3ccc(-c4cn[nH]c4)c(C)n3)C2=O)c1 [Example 178, 1-(3-fluoro-5-methoxy-benzyl)-3-(6-methyl-5-(1H-pyrazol-4-yl)pyridin-2-yl)-imidazolidin-2-one]
The IC50 of the first is lower: < 2 nM for the first, 2.1 to 20 nM for the second. The first is the more potent here.

`CCc1nc(N2CCN(Cc3cccc(OCC4CC4)c3)C2=O)ccc1-c1cn[nH]c1` [Example 169, 1-(3-(cyclo-propyl-methoxy)-benzyl)-3-(6-ethyl-5-(1H-pyrazol-4-yl)pyridin-2-yl)-imidazolidin-2-one] and `Cc1nc(N2CCN(Cc3cccc(OCC4CC4)c3)C2=O)ccc1-c1cn[nH]c1` [Example 186, 1-(3-(cyclo-propyl-methoxy)-benzyl)-3-(6-methyl-5-(1H-pyrazol-4-yl)pyridin-2-yl)-imidazolidin-2-one] fall in the same range of IC50: 20.1 to 200 nM for the first, 20.1 to 200 nM for the second.

First: CCc1nc(N2CCN(Cc3ccc(F)c(OC)c3)C2=O)ccc1-c1cn[nH]c1 [Example 170, 1-(6-ethyl-5-(1H-pyrazol-4-yl)pyridin-2-yl)-3-(4-fluoro-3-methoxy-benzyl) imidazolidin-2-one]
Second: CCc1nc(-n2ccn(Cc3ccc(F)c(OC)c3)c2=O)ccc1-c1cn[nH]c1 [Example 171, 1-(6-ethyl-5-(1H-pyrazol-4-yl)pyridin-2-yl)-3-(4-fIuoro-3-methoxy-benzyl)-1H-imidazol-2(3H)-one]
The IC50 of the first is lower: 2.1 to 20 nM for the first, 20.1 to 200 nM for the second. The first is the more potent here.

`CCc1nc(-n2ccn(Cc3cc(F)cc(OC)c3)c2=O)ccc1-c1cn[nH]c1` [Example 172, 1-(6-ethyl-5-(1H-pyrazol-4-yl)pyridin-2-yl)-3-(3-fluoro-5-methoxy-benzyl)-1H-imidazol-2(3H)-one] and `COc1cc(F)cc(Cn2ccn(-c3ccc(-c4cn[nH]c4)c(C)n3)c2=O)c1` [Example 185, 1-(3-fluoro-5-methoxy-benzyl)-3-(6-methyl-5-(1H-pyrazol-4-yl)pyridin-2-yl)-1H-imidazol-2(3H)-one] fall in the same range of IC50: 2.1 to 20 nM for the first, 2.1 to 20 nM for the second.

First: CCc1nc(-n2ccn(Cc3cccc(OC)c3)c2=O)ccc1-c1cn[nH]c1 [Example 180, 1-(6-ethyl-5-(1H-pyrazol-4-yl)pyridin-2-yl)-3-(3-methoxy-benzyl)-1H-imidazol-2(3H)-one]
Second: COc1cccc(Cn2ccn(-c3ccc(-c4cn[nH]c4)c(C)n3)c2=O)c1 [Example 187, 1-(3-methoxy-benzyl)-3-(6-methyl-5-(1H-pyrazol-4-yl)pyridin-2-yl)-1H-imidazol-2(3H)-one]
The IC50 of the first is lower: < 2 nM for the first, 2.1 to 20 nM for the second.

`CCc1cc(N2CCN(Cc3cccc(OC)c3)C2=O)ncc1-c1cn[nH]c1` [Example 190, 1-(4-ethyl-5-(1H-pyrazol-4-yl)pyridin-2-yl)-3-(3-methoxy-benzyl) imidazolidin-2-one] and `CCc1cc(N2CCN(Cc3cc(F)cc(OC)c3)C2=O)ncc1-c1cn[nH]c1` [Example 191, 1-(4-ethyl-5-(1H-pyrazol-4-yl)pyridin-2-yl)-3-(3-fluoro-5-methoxy-benzyl) imidazolidin-2-one] fall in the same range of IC50: 200 to 2000 nM for the first, 200 to 2000 nM for the second.
